Measured values reported in patent US20100240656A1, “COMPOUNDS AS HSP90 INHIBITORS” (ORYZON GENOMICS, S.A., priority 2007, published 2010).

How the values were obtained:
[1] = target: T1, Hsp90α (Homo sapiens, UniProt P07900); test: Human Hsp90α fluorescence polarization competition assay with Example 37 tracer; conditions: displacement of 50 nM example 37 tracer, 125 nM Hsp90α, 1 h 30 min, 20° C.; read-out: Relative binding affinity values (IC50) obtained from FP measurements
T1 construct: purchased Stressgen Bioreagents SPP-776
Excerpt: The aim of this study was to determine the binding ability of compounds of the invention to the N-terminal ATP binding site of Hsp90. For that purpose competition assays with fluorescently labeled Hsp90 binders were used (compounds of examples 37 and 41).
Compounds of examples 37 and 41 are structurally based on 8-(6-Iodo-benzo[1,3]dioxol-5-ylsulfanyl)-9-(3-isopropylamino-propyl)-9H-purin-6-ylamine, a known binder of the N-terminal ATP binding site of Hsp90 which has the ability of inhibiting the Hsp90 function (cf. Chiosis G. et al. “Identification of Potent Water Soluble Purine-Scaffold Inhibitors of the Heat Shock Protein 90”, J. Med. Chem., 2006, vol. 49, no. 1, p. 381). Compounds 37 and 41 keep the essential structural features of the known binder (which means that said compounds are able to bind to the ATP binding site) and incorporate a fluorescent probe which allows the detection of the binding by fluorescence polarization.
When the binders of examples 37 and 41 are used in the competition assay, in a first step said binders are allowed to interact with the N-terminal ATP binding site of Hsp90. Then the compounds of the invention are added and it is determined if they are able to bind to the N-terminal ATP binding site (which will imply that the binders of examples 37 and 41 have been replaced from the N-terminal ATP binding site). If after performing the assay, the binding between the tested compound of the invention and the Hsp90 is observed, this will be indicative that the compound of the invention has been bound to the ATP binding site of Hsp90 and, therefore, can inhibit the Hsp90.
Once compounds of examples 37 and 41 were synthesized as reported above, they were dissolved at 238 μM and 1 mM in DMSO respectively (Sigma-Aldrich, cat. No. 154938). Hsp90α was purchased from Stressgen Bioreagents (cat. No. SPP-776; Victoria, Canada). The assay buffer contained 100 mM Tris·HCl, pH 7.4, 20 mM KCl, 6 mM MgCl2. Before each use 5 μg/mL bovine serum albumin (BSA, Pierce, Rockford (Ill.), cat No. 23209), 0.25 mM TCEP (Sigma, cat No. 64706) and 0.01% NP40 (Nonidet P40 Substitute, Fluka, cat No. 74385) were freshly added (cf. Howes et al., “A fluorescence polarization assay for inhibitors of Hsp90”, Analytical Biochemistry, 2006, vol. 350, p. 202-213; Kim et al., “Development of a fluorescence polarization assay for the molecular chaperone Hsp90”, J. Biomol. Screen., 2004, vol. 9 (5)).
Fluorescence polarization measurements were performed on an Infinite F200 (Tecan, Austria). Measurements were taken in black 96-well microplates (Corning Costar No. 3650) in which both the excitation and the emission occurred from the top of the wells. In the Infinite F200, a xenon arc lamp provides excitation light that passes through a 485 nm (20-nm bandwidth) excitation filter and then a polarizer filter. A beam splitter filter directs the polarized excitation light into the well, and emitted fluorescence transmits back through the same beam-splitter filter, through a polarizer filter, and then through a 535 nm (25-nm bandwidth) emission filter for detection (Kim et al., supra). The read time per well was 20 μs, and the number of reads per well was 25.
Compounds were assayed over a three-fold dilution series in a 96-well plate format to determine IC50 values. The serial dilution was performed in a separate 96-well plate (Thermowell 96 well PCR plate, Non-Treated Polypropylene, Corning Costar No. 6551) at 50 times final assay concentration in DMSO. (Howes et al, supra). 2 μl of compound was transferred to a black 96-well plate (Corning Costar No. 3650) and 98 μL of reaction solution (100 mM Tris·HCl, pH 7.4, 20 mM KCl, 6 mM MgCl2, 5 μg/mL bovine serum albumin (BSA), 0.25 mM TCEP, 0.01% NP40, 50 nM the compound of example 37, 125 nM Hsp90α) was added per well. The plate was allowed to equilibrate for 1 h 30 min on a slow moving shaker at 20° C. in the dark. […]

[2] = tested on: SKBr3; test: Cell growth inhibition by AlamarBlue method, SKBr3; assay type: cell-based; conditions: Homo sapiens, SK-BR-3; SKBr3, 72 hours; read-out: Cell growth inhibition values (EC50) obtained with AlamarBlue method
Method: The human colon cancer cell line HCT-116 and the human breast cell lines MCF-7 and SKBr3 were from the American Type Culture Collection (ATCC; CCL-247, HTB-22 and HTB-30, respectively).
The HCT-116 and SKBr3 cell lines were maintained in DMEM GlutaMAX (Invitrogen) supplemented with 10% fetal calf serum and the MCF-7 cell line was maintained in RPMI1640 GlutaMAX (Invitrogen) containing 1 mM sodium pyruvate and 10% fetal calf serum. Cells were grown in a humidified incubator at 37° C. in 5% CO2
Cells were plated in 96-well plates (Costar, 3596) at a density of 6000 cells/well in 50 μL medium 24 h before addition of the compounds. Compounds were then added in 8 concentrations, each in triplicate (dilution series of 1 to 3). To do so, a compound-dilution plate at 200× the screening concentrations was prepared in DMSO 100% (Sigma, 154938). Then, 1.7 μL of the 200× diluted compounds were transferred to a new plate and 170 μL of media were added and mixed with the pipette (plate at 2×). Columns 11 and 12 of this plate (controls) were filled with 1% DMSO in cell media (i.e. 1.7 μL DMSO and 170 μL cell media). Finally, 50 μL of this intermediate plate at 2× were transferred to the plate containing the seeded cells and slowly shaken manually. Cells were grown as described above. AlamarBlue viability assay (Biosource, Invitrogen, DAL1100) was performed 72 hours later following manufacturer's protocol. In brief, AlamarBlue diluted in media was added to cells to have a 5% solution (a 2× solution was prepared in media and 100 μL of this solution were transferred to each well, i.e. final volume of 200 μL). Cells were incubated at 37° C., 3 hours and at room temperature for an additional 30 min. Cells with no compound and, cells with no compound and lysed with triton X-100 (30 μL/well added 10 min before treatment with AlamarBlue) were used as controls (6 replicates of each). Fluorescence was monitored at 530 nm excitation and 590 nm emission wavelengths. Results were quantified using ELx800 Universal Microplate Reader (Bio-Tek Instruments, Inc.). EC50 were calculated as the dose of compound required to inhibit cell growth by 50%.

| Compound | IC50 [1] | EC50 [2] |
| --- | --- | --- |
| NCCCCCn1c(Sc2cc3c(cc2I)OCO3)nc(C(N)=O)c1N [Example 6, 5-amino-1-(5-amino-pentyl)-2-(6-iodo-benzo[1,3]dioxol-5-ylsulfanyl)-1H-imidazole-4-carboxamide] | 880 nM |  |
| CCCCn1c(Sc2cc3c(cc2I)OCO3)nc(C(N)=O)c1N [Example 10, 5-amino-1-butyl-2-(6-iodo-benzo[1,3]dioxol-5-ylsulfanyl)-1H-imidazole-4-carboxamide] | 1700 nM | 24000 to 30000 nM |
